Laboratory results reported in ChEMBL document CHEMBL5154899, “Spiropyrimidinetrione DNA Gyrase Inhibitors with Potent and Selective Antituberculosis Activity” (J Med Chem, 2022).
Values after ≈ are worked out from the molar mass of the structure shown.

Assays:
[1] = system: Mycobacterium tuberculosis; assay: microbe, parasite or virus in culture; details: H37Rv, 192 h
Description: Antibacterial activity against Mycobacterium tuberculosis H37Rv assessed as inhibition of bacterial growth measured after 8 days by Alamar blue reagent based broth microdilution method

Staphylococcus aureus = assay: microbe, parasite or virus in culture; details: ATTC 25923, 192 h
Escherichia coli = assay: microbe, parasite or virus in culture; details: ATTC 25922, 192 h
DNA gyrase = DNA gyrase (Staphylococcus aureus, UniProt P0A0K8+P20831)
Chain of DNA gyrase (P0A0K8 whole entry): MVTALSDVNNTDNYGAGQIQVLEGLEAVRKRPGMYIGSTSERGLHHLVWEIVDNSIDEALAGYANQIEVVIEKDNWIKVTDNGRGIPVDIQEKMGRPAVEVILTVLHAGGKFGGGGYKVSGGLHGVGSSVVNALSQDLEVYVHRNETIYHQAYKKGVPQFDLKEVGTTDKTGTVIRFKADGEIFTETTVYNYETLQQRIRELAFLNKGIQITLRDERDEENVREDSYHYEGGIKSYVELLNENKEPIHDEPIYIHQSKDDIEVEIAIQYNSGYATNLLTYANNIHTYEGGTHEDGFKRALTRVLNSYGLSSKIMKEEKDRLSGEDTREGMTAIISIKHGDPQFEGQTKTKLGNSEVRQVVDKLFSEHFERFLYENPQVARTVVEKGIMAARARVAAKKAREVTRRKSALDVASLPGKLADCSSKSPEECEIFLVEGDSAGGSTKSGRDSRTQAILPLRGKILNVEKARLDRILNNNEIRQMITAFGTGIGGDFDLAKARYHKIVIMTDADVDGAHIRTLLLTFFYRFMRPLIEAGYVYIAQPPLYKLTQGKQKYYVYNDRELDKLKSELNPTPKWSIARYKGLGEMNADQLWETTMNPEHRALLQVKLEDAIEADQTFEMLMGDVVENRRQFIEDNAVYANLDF
Chain of DNA gyrase (P20831 whole entry): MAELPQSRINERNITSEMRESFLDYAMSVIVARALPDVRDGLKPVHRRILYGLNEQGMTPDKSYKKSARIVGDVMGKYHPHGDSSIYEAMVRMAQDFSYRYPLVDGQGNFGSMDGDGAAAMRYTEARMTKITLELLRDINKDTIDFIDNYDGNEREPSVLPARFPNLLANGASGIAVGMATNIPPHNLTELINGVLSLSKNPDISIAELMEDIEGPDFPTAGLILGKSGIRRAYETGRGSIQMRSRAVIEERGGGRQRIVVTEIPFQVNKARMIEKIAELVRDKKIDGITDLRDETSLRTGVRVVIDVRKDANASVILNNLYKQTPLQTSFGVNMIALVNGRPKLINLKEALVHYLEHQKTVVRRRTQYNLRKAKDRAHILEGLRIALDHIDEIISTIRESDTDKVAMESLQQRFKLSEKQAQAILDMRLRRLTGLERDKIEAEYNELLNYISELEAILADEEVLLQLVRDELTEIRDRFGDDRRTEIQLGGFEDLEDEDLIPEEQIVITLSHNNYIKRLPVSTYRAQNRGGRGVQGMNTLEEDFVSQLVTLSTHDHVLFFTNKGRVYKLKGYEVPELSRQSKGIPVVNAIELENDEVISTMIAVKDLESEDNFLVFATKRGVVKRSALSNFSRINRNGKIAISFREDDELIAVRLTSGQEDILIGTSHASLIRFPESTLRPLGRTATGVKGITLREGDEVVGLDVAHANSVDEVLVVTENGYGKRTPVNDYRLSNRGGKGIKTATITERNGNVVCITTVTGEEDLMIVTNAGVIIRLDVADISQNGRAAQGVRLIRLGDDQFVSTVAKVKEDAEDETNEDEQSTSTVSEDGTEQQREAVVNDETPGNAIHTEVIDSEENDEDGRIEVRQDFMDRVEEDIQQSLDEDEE

[2] = molecular target: DNA gyrase subunit A/DNA gyrase subunit B (Mycobacterium tuberculosis (strain ATCC 25618 / H37Rv), UniProt P9WG45+P9WG47); assay: Inhibition of Mycobacterium tuberculosis H37Rv DNA gyrase
Chain of DNA gyrase subunit A/DNA gyrase subunit B (P9WG45 whole entry): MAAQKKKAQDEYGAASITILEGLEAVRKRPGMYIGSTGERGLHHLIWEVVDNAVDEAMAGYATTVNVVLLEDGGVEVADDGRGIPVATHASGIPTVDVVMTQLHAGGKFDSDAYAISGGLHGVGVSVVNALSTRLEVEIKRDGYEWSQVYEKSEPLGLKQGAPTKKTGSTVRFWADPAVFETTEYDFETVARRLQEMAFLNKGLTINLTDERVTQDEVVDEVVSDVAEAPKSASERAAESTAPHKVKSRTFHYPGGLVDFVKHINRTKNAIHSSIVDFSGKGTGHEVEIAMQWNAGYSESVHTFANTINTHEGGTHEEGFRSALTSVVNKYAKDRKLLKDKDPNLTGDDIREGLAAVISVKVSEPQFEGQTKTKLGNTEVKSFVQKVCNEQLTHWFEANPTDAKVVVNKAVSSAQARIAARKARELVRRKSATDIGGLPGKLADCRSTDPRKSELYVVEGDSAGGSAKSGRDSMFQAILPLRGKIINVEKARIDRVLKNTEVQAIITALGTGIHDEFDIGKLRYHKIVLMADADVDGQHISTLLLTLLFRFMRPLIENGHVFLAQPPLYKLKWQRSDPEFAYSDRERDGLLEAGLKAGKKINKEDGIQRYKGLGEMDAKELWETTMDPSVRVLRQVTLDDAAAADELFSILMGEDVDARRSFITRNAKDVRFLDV
Chain of DNA gyrase subunit A/DNA gyrase subunit B (P9WG47 whole entry): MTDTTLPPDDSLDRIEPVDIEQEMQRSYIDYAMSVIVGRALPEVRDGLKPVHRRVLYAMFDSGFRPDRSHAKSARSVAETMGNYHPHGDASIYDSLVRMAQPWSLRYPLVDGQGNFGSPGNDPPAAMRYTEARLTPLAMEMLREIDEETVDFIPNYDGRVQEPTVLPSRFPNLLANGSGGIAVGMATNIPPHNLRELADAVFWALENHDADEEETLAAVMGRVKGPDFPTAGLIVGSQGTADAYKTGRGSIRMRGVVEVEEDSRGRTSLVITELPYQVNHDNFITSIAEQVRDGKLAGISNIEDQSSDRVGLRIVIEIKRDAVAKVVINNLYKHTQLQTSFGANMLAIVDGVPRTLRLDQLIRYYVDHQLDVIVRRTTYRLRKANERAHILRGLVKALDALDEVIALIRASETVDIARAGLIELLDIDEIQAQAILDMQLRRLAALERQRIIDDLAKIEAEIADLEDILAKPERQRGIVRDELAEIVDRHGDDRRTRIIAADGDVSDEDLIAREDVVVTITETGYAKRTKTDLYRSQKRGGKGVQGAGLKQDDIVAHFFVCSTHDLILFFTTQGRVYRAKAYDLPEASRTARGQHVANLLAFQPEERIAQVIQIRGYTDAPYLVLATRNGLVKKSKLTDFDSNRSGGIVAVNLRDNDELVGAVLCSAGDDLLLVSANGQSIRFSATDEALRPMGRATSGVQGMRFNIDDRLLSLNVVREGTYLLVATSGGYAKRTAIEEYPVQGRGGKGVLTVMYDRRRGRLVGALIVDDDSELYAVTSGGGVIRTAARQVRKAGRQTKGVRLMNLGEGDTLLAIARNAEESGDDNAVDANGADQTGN

[3] = system: Mycobacterium tuberculosis; assay: microbe, parasite or virus in culture; details: H37Rv, 264 h
Description: Antibacterial activity against wild type Mycobacterium tuberculosis H37Rv assessed as inhibition of bacterial growth incubated for 11 days

[4] = system: Mycobacterium tuberculosis; assay: microbe, parasite or virus in culture; details: H37Rv, 264 h; remark: listed apart in the source
Description: Antibacterial activity against Mycobacterium tuberculosis H37Rv gyrA -FDASTetON-1 hypomorph assessed as inhibition of bacterial growth incubated for 11 days

Row | SMILES | MIC [1] | MIC (Staphylococcus aureus) | MIC (Escherichia coli) | other results
1 | Cc1nnc(COc2noc3c(F)c4c(cc23)CC2(C(=O)NC(=O)NC2=O)[C@H]2[C@H](C)O[C@H](C)CN42)o1 | 63 µM (≈ 31.5 µg/mL) | > 125 µM | > 125 µM | –
2 | C[C@@H]1CN2c3c(cc4c(OC[C@@H]5CNC(=O)C5)noc4c3F)CC3(C(=O)NC(=O)NC3=O)[C@H]2[C@H](C)O1 | 2 µM (≈ 1 µg/mL) | > 125 µM | > 250 µM | –
3 | Cc1nnc(-c2noc3c(F)c4c(cc23)CC2(C(=O)NC(=O)NC2=O)[C@H]2[C@H](C)O[C@H](C)CN42)o1 | 0.45 µM (≈ 0.212 µg/mL) | – | 31 µM (≈ 14.6 µg/mL) | –
4 | C[C@H]1C[C@@H](C)[C@H]2N(C1)c1c(cc3c(OC[C@@H]4CCC(=O)N4)noc3c1F)CC21C(=O)NC(=O)NC1=O | 16 µM (≈ 7.99 µg/mL) | 7.8 µM (≈ 3.9 µg/mL) | 63 µM (≈ 31.5 µg/mL) | –
5 | C[C@@H]1CN2c3c(cc4c(N5C[C@H](O)[C@@H](O)C5)noc4c3F)CC3(C(=O)NC(=O)NC3=O)[C@H]2[C@H](C)O1 | 31 µM (≈ 15.2 µg/mL) | – | > 125 µM | –
6 | C[C@@H]1CN2c3c(cc4c(OC[C@@H]5COC(=O)N5)noc4c3F)CC3(C(=O)NC(=O)NC3=O)[C@H]2[C@H](C)O1 | 2 µM (≈ 1.01 µg/mL) | – | > 250 µM | –
7 | CC(=O)N1[C@H](C)CN2c3c(cc4c(N5C(=O)OC[C@@H]5C)noc4c3F)CC3(C(=O)NC(=O)NC3=O)[C@H]2[C@@H]1C | > 125 µM | > 125 µM | > 125 µM | –
8 | C[C@@H]1CN2c3c(cc4c(N5CC[C@@H](O)C5)noc4c3F)CC3(C(=O)NC(=O)NC3=O)[C@H]2[C@H](C)O1 | 3.9 µM (≈ 1.85 µg/mL) | – | – | –
9 | C[C@@H]1CN2c3c(cc4c(N5CC[C@H](F)C5)noc4c3F)CC3(C(=O)NC(=O)NC3=O)[C@H]2[C@H](C)O1 | 4 µM (≈ 1.9 µg/mL) | 2 µM (≈ 0.951 µg/mL) | 31 µM (≈ 14.7 µg/mL) | –
10 | C[C@@H]1CN2c3c(cc4c(OC[C@H]5COC(=O)N5)noc4c3F)CC3(C(=O)NC(=O)NC3=O)[C@H]2[C@H](C)O1 | – | 63 µM (≈ 31.7 µg/mL) | – | –
11 | C[C@@H]1CN2c3c(cc4c(OC[C@@H]5CCC(=O)N5)noc4c3F)CC3(C(=O)NC(=O)NC3=O)[C@H]2[C@H](C)N1C#N | 0.49 µM (≈ 0.257 µg/mL) | > 125 µM | > 125 µM | –
12 | C[C@@H]1CN2c3c(cc4c(N5CC[C@H](O)C5)noc4c3F)CC3(C(=O)NC(=O)NC3=O)[C@H]2[C@H](C)O1 | 5.9 µM (≈ 2.79 µg/mL) | 64 µM (≈ 30.3 µg/mL) | > 125 µM | IC50 (DNA gyrase): 6.9 µM; IC50 [2]: 20 µM; MIC50 [3]: 3.3 µM (≈ 1.56 µg/mL); MIC99 [3]: 5.9 µM (≈ 2.79 µg/mL); MIC50 [4]: 0.92 µM (≈ 0.436 µg/mL); MIC99 [4]: 2.4 µM (≈ 1.14 µg/mL)
13 | C[C@@H]1CN2c3c(cc4c(OC[C@@H]5CCC(=O)N5)noc4c3F)CC3(C(=O)NC(=O)NC3=O)[C@H]2[C@H](C)O1 | 1 µM (≈ 0.501 µg/mL) | > 125 µM | > 125 µM | IC50 [2]: 2.6 µM
14 | C[C@@H]1CN2c3c(cc4c(N5C(=O)OC[C@@H]5C)noc4c3F)CC3(C(=O)NC(=O)NC3=O)[C@H]2[C@H](C)N1O | > 125 µM | > 125 µM | > 125 µM | –
15 | C[C@@H]1CN2c3c(cc4c(N5CC[C@H](C(=O)O)C5)noc4c3F)CC3(C(=O)NC(=O)NC3=O)[C@H]2[C@H](C)O1 | > 125 µM | > 125 µM | > 125 µM | –
16 | C[C@@H]1CN2c3c(cc4c(N5C[C@@H](O)[C@H](O)C5)noc4c3F)CC3(C(=O)NC(=O)NC3=O)[C@H]2[C@H](C)O1 | 5.9 µM (≈ 2.89 µg/mL) | > 125 µM | – | IC50 (DNA gyrase): 6.6 µM; IC50 [2]: 16 µM; MIC50 [3]: 3.65 µM (≈ 1.79 µg/mL); MIC99 [3]: 6.75 µM (≈ 3.3 µg/mL); MIC50 [4]: 1.24 µM (≈ 0.607 µg/mL); MIC99 [4]: 3.2 µM (≈ 1.57 µg/mL)
17 | C[C@@H]1CN2c3c(cc4c(OC[C@H]5CNC(=O)C5)noc4c3F)CC3(C(=O)NC(=O)NC3=O)[C@H]2[C@H](C)O1 | – | 31 µM (≈ 15.5 µg/mL) | 63 µM (≈ 31.6 µg/mL) | –
18 | C[C@@H]1CN2c3c(cc4c(N5C[C@@H](O)[C@@H](O)C5)noc4c3F)CC3(C(=O)NC(=O)NC3=O)[C@H]2[C@H](C)O1 | 16 µM (≈ 7.83 µg/mL) | – | – | –
19 | C[C@@H]1CN2c3c(cc4c(N5CCC[C@@H](O)C5)noc4c3F)CC3(C(=O)NC(=O)NC3=O)[C@H]2[C@H](C)O1 | 10 µM (≈ 4.87 µg/mL) | – | > 125 µM | –
20 | COc1c(N2C[C@@H]3CCCN[C@@H]3C2)c(F)cc2c(=O)c(C(=O)O)cn(C3CC3)c12 [MOXIFLOXACIN] | 0.17 µM (≈ 0.0682 µg/mL) | – | – | MIC50 [3]: 0.12 µM (≈ 0.0482 µg/mL); MIC99 [3]: 0.19 µM (≈ 0.0763 µg/mL); MIC50 [4]: 0.041 µM (≈ 0.0165 µg/mL); MIC99 [4]: 0.07 µM (≈ 0.0281 µg/mL)
21 | CO[C@H]1/C=C/O[C@@]2(C)Oc3c(C)c(O)c4c(O)c(c(/C=N/N5CCN(C)CC5)c(O)c4c3C2=O)NC(=O)/C(C)=C\C=C\[C@H](C)[C@H](O)[C@@H](C)[C@@H](O)[C@@H](C)[C@H](OC(C)=O)[C@@H]1C [RIFAMPIN] | – | – | – | MIC50 [3]: 0.24 µM (≈ 0.198 µg/mL); MIC99 [3]: 0.041 µM (≈ 0.0337 µg/mL); MIC50 [4]: 0.021 µM (≈ 0.0173 µg/mL); MIC99 [4]: 0.037 µM (≈ 0.0304 µg/mL)
22 | C[C@@H]1CN2c3c(cc4c(N5C(=O)OC[C@@H]5C)noc4c3F)CC3(C(=O)NC(=O)NC3=O)[C@H]2[C@H](C)O1 [ZOLIFLODACIN] | 0.35 µM (≈ 0.171 µg/mL) | – | 1.4 µM (≈ 0.682 µg/mL) | MIC50 [3]: 20 µM (≈ 9.75 µg/mL); MIC99 [3]: 44 µM (≈ 21.4 µg/mL); MIC50 [4]: 4.6 µM (≈ 2.24 µg/mL); MIC99 [4]: 12 µM (≈ 5.85 µg/mL); solubility kinetic at 20 h, 200 µM (physchem): 160 µM (≈ 78 µg/mL)
